Reference: publication PMC12030627, “Radioiodinated Bicyclic RGD Peptide Derivatives for Enhanced Tumor Accumulation” (Pharmaceuticals, 2025)
Where two headings read alike, the source gives them in different places. Starred links: 1 amine or outer side, 2 acyl side, 3 side chain; linkers in the order of their positions; H or OH if unused. Positions of bridges follow the written chain, without caps; N, C: chain ends. Non-standard residues stand in square brackets, D forms with d. Residues, ends and D or L forms follow the SMILES beside them. *: point of attachment. TBMB = c1c(C[*:1])cc(C[*:3])cc1C[*:2]; Palmitoyl = CCCCCCCCCCCCCCCC(=O)*; Benzoyl(3-I) = O=C(c1cccc(I)c1)*; 4Abz = Nc1ccc(C(=O)O)cc1

Assay: Biodistribution in U-87 MG tumor-bearing mice
Assay type: in vivo, BALB/c nu-nu mice
Details: male, BALB/c nu-nu, mouse, iv, 37 kBq, total radioactivity, U-87 MG-bearing mice, mean ± SD, n = 3; for tissue uptake at 1 h / tissue uptake dose at 1 h: 1 h after i.v. administration; for tissue uptake at 2 h / tissue uptake dose at 2 h: 2 h after i.v. administration; for tissue uptake at 6 h / tissue uptake dose at 6 h: 6 h after i.v. administration; for tissue uptake at 5 min / tissue uptake dose at 5 min: 5 min after i.v. administration; for tissue uptake at 0.5 h / tissue uptake dose at 0.5 h: 30 min after i.v. administration
Method in brief: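 Male BALB/c nu/nu mice bearing subcutaneous U-87 MG (right leg), or also A549 (left leg), tumors ~10 mm; 37 kBq radiotracer given IV in PBS-0.1% Tween 80. Single-tumor mice sampled 5 min–24 h, co-implanted mice at 2 h (or 30 min–4 h for dimer); organ radioactivity counted by NaI scintillation, expressed as %ID/g.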

[1] = liver, read-out: Radioactivity in liver
[2] = lung, read-out: Radioactivity in lung
[3] = muscle, read-out: Radioactivity in muscle
[4] = pancreas, read-out: Radioactivity in pancreas
[5] = small intestine, read-out: Radioactivity in small intestine
[6] = spleen, read-out: Radioactivity in spleen
[7] = stomach, read-out: Radioactivity in stomach
[8] = thyroid, read-out: Radioactivity in thyroid

CCCCCCCCCCCCCCCC(=O)N[C@@H](CCCCNC(=O)c1cccc(I)c1)C(=O)N1CCC[C@H]1C(=O)N1CCC[C@H]1C(=O)N1CCC[C@H]1C(=O)N[C@@H](CO)C(=O)NCC(=O)Nc1ccc(C(=O)N[C@@H](CO)C(=O)NCC(=O)N[C@H]2CSCc3cc4cc(c3)CSC[C@@H](NC(=O)[C@H](CCC(N)=O)NC(=O)[C@@H]3CCCN3C(=O)[C@H](Cc3c[nH]cn3)NC2=O)C(=O)N[C@@H](CCCNC(=N)N)C(=O)NCC(=O)N[C@@H](CC(=O)O)C(=O)N[C@@H](C(N)=O)CSC4)cc1 [[^125I]bcRGDpal] (Palmitoyl-K(Benzoyl(3-I))PPPSG[4Abz]SGCHPQ[dC]RGD[dC]-NH2; linker 10-14-18 via TBMB)
tissue uptake at 1 h [1]: 15.8 ± 0.9 %ID/g | tissue uptake at 2 h [1]: 12.3 ± 0.3 %ID/g | tissue uptake at 6 h [1]: 6 ± 0.2 %ID/g | tissue uptake at 12 h (liver, 12 h after i.v. administration, read-out: Radioactivity in liver): 1.9 ± 0.2 %ID/g | tissue uptake at 24 h (liver, 24 h after i.v. administration, read-out: Radioactivity in liver): 0.5 %ID/g | tissue uptake at 5 min [2]: 11.8 ± 1.3 %ID/g | tissue uptake at 0.5 h [2]: 11.2 ± 1 %ID/g | tissue uptake at 1 h [2]: 9.6 ± 1.3 %ID/g | tissue uptake at 2 h [2]: 7.8 ± 1 %ID/g | tissue uptake at 6 h [2]: 4.4 ± 0.5 %ID/g | tissue uptake at 12 h (lung, 12 h after i.v. administration, read-out: Radioactivity in lung): 2.2 ± 0.3 %ID/g | tissue uptake at 24 h (lung, 24 h after i.v. administration, read-out: Radioactivity in lung): 0.6 ± 0.1 %ID/g | tissue uptake at 5 min [3]: 1.4 ± 0.3 %ID/g | tissue uptake at 0.5 h [3]: 1.6 ± 0.2 %ID/g | tissue uptake at 1 h [3]: 1.4 ± 0.2 %ID/g | tissue uptake at 2 h [3]: 1.1 ± 0.1 %ID/g | tissue uptake at 6 h [3]: 0.6 ± 0.1 %ID/g | tissue uptake at 12 h (muscle, 12 h after i.v. administration, read-out: Radioactivity in muscle): 0.3 %ID/g | tissue uptake at 24 h (muscle, 24 h after i.v. administration, read-out: Radioactivity in muscle): 0.1 %ID/g | tissue uptake at 5 min [4]: 2.8 ± 0.2 %ID/g | tissue uptake at 0.5 h [4]: 2.5 ± 0.3 %ID/g | tissue uptake at 1 h [4]: 1.9 ± 0.1 %ID/g | tissue uptake at 2 h [4]: 1.6 ± 0.1 %ID/g | tissue uptake at 6 h [4]: 1.2 ± 0.3 %ID/g | tissue uptake at 12 h (pancreas, 12 h after i.v. administration, read-out: Radioactivity in pancreas): 0.4 %ID/g | tissue uptake at 24 h (pancreas, 24 h after i.v. administration, read-out: Radioactivity in pancreas): 0.1 %ID/g | tissue uptake at 5 min [5]: 2.3 ± 0.2 %ID/g | tissue uptake at 0.5 h [5]: 4.5 ± 0.6 %ID/g | tissue uptake at 1 h [5]: 7 ± 0.3 %ID/g | tissue uptake at 2 h [5]: 9.3 ± 0.9 %ID/g | tissue uptake at 6 h [5]: 4 ± 0.2 %ID/g | tissue uptake at 12 h (small intestine, 12 h after i.v. administration, read-out: Radioactivity in small intestine): 1.9 ± 0.5 %ID/g | tissue uptake at 24 h (small intestine, 24 h after i.v. administration, read-out: Radioactivity in small intestine): 0.3 %ID/g | tissue uptake at 5 min [6]: 5.1 ± 0.4 %ID/g | tissue uptake at 0.5 h [6]: 5.9 ± 0.8 %ID/g | tissue uptake at 1 h [6]: 4.6 ± 0.6 %ID/g | tissue uptake at 2 h [6]: 3.7 ± 0.1 %ID/g | tissue uptake at 6 h [6]: 1.9 ± 0.2 %ID/g | tissue uptake at 12 h (spleen, 12 h after i.v. administration, read-out: Radioactivity in spleen): 0.8 ± 0.1 %ID/g | tissue uptake at 24 h (spleen, 24 h after i.v. administration, read-out: Radioactivity in spleen): 0.2 %ID/g | tissue uptake dose at 5 min [7]: 0.5 ± 0.1 %ID | tissue uptake dose at 0.5 h [7]: 0.6 ± 0.1 %ID | tissue uptake dose at 1 h [7]: 0.7 ± 0.1 %ID | tissue uptake dose at 2 h [7]: 0.8 ± 0.1 %ID | tissue uptake dose at 6 h [7]: 0.4 %ID | tissue uptake dose at 12 h (stomach, 12 h after i.v. administration): 0.4 ± 0.3 %ID | tissue uptake dose at 24 h (stomach, 24 h after i.v. administration): 0.1 ± 0.1 %ID | tissue uptake dose at 5 min [8]: 0.1 %ID | tissue uptake dose at 0.5 h [8]: 0.1 ± 0.1 %ID | tissue uptake dose at 1 h [8]: 0.1 ± 0.1 %ID | tissue uptake dose at 2 h [8]: 0.1 ± 0.1 %ID | tissue uptake dose at 6 h [8]: 0.1 %ID
